Target: T1, CsSWEET17 (Citrus sinensis, UniProt A0ACB8I933)
T1 construct: gene KPL71_027705; full-length CDS (705 bp, about 235 residues) in pDR196, expressed in Saccharomyces cerevisiae CSY4000 (W303 for esculin); seven TMs
Assay: […]-sucrose uptake in CSY4000 yeast, nonlinear Michaelis-Menten fit
Type: cell-based
Details: pH 5.5; 30 °C; proton-coupled transport; labelled compound

T1 sequence (A0ACB8I933 entry or part of it): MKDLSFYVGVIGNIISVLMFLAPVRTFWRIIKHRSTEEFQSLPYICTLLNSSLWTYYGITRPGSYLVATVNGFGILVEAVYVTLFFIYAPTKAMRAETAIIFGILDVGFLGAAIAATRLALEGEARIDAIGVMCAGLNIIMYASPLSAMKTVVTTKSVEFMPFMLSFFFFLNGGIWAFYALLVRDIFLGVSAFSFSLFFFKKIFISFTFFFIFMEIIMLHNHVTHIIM

OC[C@H]1O[C@@](CO)(O[C@H]2O[C@H](CO)[C@@H](O)[C@H](O)[C@H]2O)[C@@H](O)[C@@H]1O [sucrose] showed a Km of 291 µM.
